Test systems include A498; LXFL 529; OVCAR-4; RXF 631; LOX IMVI; HCC 2998; HCT-116; SR; RXF 393; NCI-H522; A549; EKVX; NCI-H460; MDA-N; MDA-MB-435; MDA-MB-231; Hs-578T; T47D; MCF7; DU-145.
Assay in all cases: NCI-60 cell line screen, 48 h

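Following 48 hours of exposure in 96-well plates, responses at five concentrations were used to interpolate endpoints linearly. The concentration for 50% growth inhibition is given as GI50.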 The source made the active and inactive calls. Cut-off read from the data, not from the text of the source: active = GI50 up to about 1.1 µM and inactive = higher.

`CCOC(=O)C(=O)Nc1c(CC)cccc1C(C)CC` (stereo unspecified): the GI50 in the test on A498, in the test with LXFL 529, in the test on OVCAR-4, with RXF 631, in the test with LOX IMVI and in the test on HCC 2998 was > 100 µM (inactive) throughout. Moreover, the GI50 with HCT-116, in the test with SR, in the test on RXF 393, in the test with NCI-H522, in the test with A549 and in the test with EKVX was > 100 µM (inactive) throughout. Further, the GI50 in the test with NCI-H460 was > 100 µM (inactive).
For `O=C1CC2CC3OC3[C@H]3c4cc5c(cc4C(=O)N1C23)OCO5` (stereo partly specified), the GI50 in the test on LXFL 529, in the test on OVCAR-4, in the test with LOX IMVI, in the test with HCC 2998, in the test on HCT-116 and with SR was > 100 µM (inactive) throughout. The GI50 in the test with NCI-H522, with A549, with EKVX and in the test with NCI-H460 was > 100 µM (inactive) each time.
Turning to `Nc1nnc(O)c2c1c(I)cn2C1OC(CO)C(O)C1O` (stereo unspecified), the GI50 was 5.56 µM (inactive) in the test on A498; 0.646 µM (active) with LXFL 529; 1.3 µM (inactive) in the test with OVCAR-4; 0.295 µM (active) with RXF 631; 0.112 µM (active) with LOX IMVI; 0.208 µM (active) in the test with HCC 2998. In addition, the GI50 with HCT-116 was 0.232 µM (active); in the test with SR it was 0.0466 µM (active); in the test on RXF 393 it was 1.06 µM (active); in the test with A549, 2.07 µM (inactive); with EKVX it was 1.3 µM (inactive); in the test on NCI-H460 it was 0.0728 µM (active).
Regarding `O=S1(=O)C[C@H](NCc2ccccc2)[C@H](NCc2ccccc2)C1`, the GI50 in the test on MDA-N was > 100 µM (inactive); in the test with MDA-MB-435, > 100 µM (inactive); in the test on MDA-MB-231, > 100 µM (inactive); with OVCAR-4, > 100 µM (inactive); with Hs-578T, 73.3 µM (inactive); with LOX IMVI, > 100 µM (inactive). For the same compound, the GI50 was > 100 µM (inactive) in the test on HCC 2998; > 100 µM (inactive) in the test with HCT-116; 18.4 µM (inactive) in the test on SR; > 100 µM (inactive) in the test with RXF 393; 30.8 µM (inactive) with T47D; 17.6 µM (inactive) with NCI-H522. Further, the GI50 in the test with MCF7 was 83.8 µM (inactive); in the test on A549, > 100 µM (inactive); in the test with DU-145, > 100 µM (inactive); in the test on EKVX, > 100 µM (inactive); in the test with NCI-H460, > 100 µM (inactive).
For the compound `CSc1ccccc1P(c1ccccc1SC)c1ccccc1SC`, the GI50 with A498 was > 100 µM (inactive); with MDA-N, > 100 µM (inactive); in the test with MDA-MB-435 it was > 100 µM (inactive); with MDA-MB-231, > 100 µM (inactive); in the test on OVCAR-4, > 100 µM (inactive); in the test with Hs-578T, 98.2 µM (inactive). Moreover, the GI50 in the test with LOX IMVI was > 100 µM (inactive); with HCT-116 it was > 100 µM (inactive); with SR, > 100 µM (inactive); in the test on T47D, 2.62 µM (inactive); in the test with MCF7, > 100 µM (inactive); in the test on A549, > 100 µM (inactive). For the same compound, the GI50 in the test with DU-145 and with EKVX was > 100 µM (inactive) throughout.
Consider `CCCCOc1ccc2c(c1)CC[C@@H]1[C@@H]2CC[C@]2(C)C(=O)N(CCCC)C(=O)C[C@@H]12`, for which the GI50 in the test with A498, with MDA-N, in the test with MDA-MB-435, with MDA-MB-231, in the test with Hs-578T and in the test on HCC 2998 was > 100 µM (inactive) in each case. The GI50 in the test with HCT-116, with SR, in the test with T47D, in the test with NCI-H522, with MCF7 and in the test on DU-145 was > 100 µM (inactive) throughout. The GI50 in the test on NCI-H460 was > 100 µM (inactive).
In the case of `CCOC(=O)c1csc(NC(=O)CN2CCCCC2)n1`, the GI50 in the test with A498, with MDA-N, in the test with MDA-MB-435, in the test on MDA-MB-231, in the test on OVCAR-4 and with Hs-578T was > 100 µM (inactive) each time. Moreover, the GI50 in the test with LOX IMVI, in the test with HCC 2998, in the test with RXF 393, with T47D, with MCF7 and with A549 was > 100 µM (inactive) in each case. In addition, the GI50 in the test with DU-145, in the test with EKVX and with NCI-H460 was > 100 µM (inactive) each time.
As for `COc1c(OC)c(OC)c2c(c1OC)c(=O)c1ccccc1n2C` [MELICOPICINE], the GI50 with A498 is > 100 µM (inactive); in the test with MDA-N, > 100 µM (inactive); in the test on MDA-MB-435, > 100 µM (inactive); with MDA-MB-231, > 100 µM (inactive); with OVCAR-4, 65.6 µM (inactive); in the test with Hs-578T, > 100 µM (inactive). Moreover, the GI50 in the test on LOX IMVI is > 100 µM (inactive); with HCC 2998, > 100 µM (inactive); in the test on HCT-116 it was > 100 µM (inactive); with SR, 6.65 µM (inactive); with T47D it was 54.3 µM (inactive); with NCI-H522 it was > 100 µM (inactive). Besides, the GI50 with MCF7 was > 100 µM (inactive); in the test on A549, > 100 µM (inactive); in the test with DU-145 it was > 100 µM (inactive); in the test on EKVX, > 100 µM (inactive); in the test with NCI-H460, > 10 µM (inactive).
As to `CC(C)(C)N(Cc1ccoc1)C(=O)/C=C\[S+]([O-])c1ccccc1` (stereo unspecified), the GI50 with A498 was 31 µM (inactive); with MDA-N, 11.5 µM (inactive); in the test on MDA-MB-435, 6.79 µM (inactive); in the test with MDA-MB-231, 20.2 µM (inactive); in the test on OVCAR-4 it was 20 µM (inactive); in the test with Hs-578T it was 28.4 µM (inactive). The GI50 in the test with LOX IMVI is 5.45 µM (inactive); in the test on HCC 2998, 18.5 µM (inactive); in the test with HCT-116, 16.6 µM (inactive); in the test with SR, 6.44 µM (inactive); with T47D, 14.6 µM (inactive); with NCI-H522, 17.5 µM (inactive). For the same compound, the GI50 in the test with MCF7 was 15.6 µM (inactive); in the test on A549, 24.3 µM (inactive); in the test with DU-145, 12.5 µM (inactive); in the test with EKVX it was 22.8 µM (inactive).
With `COc1ccc(N2C(=O)C3c4[nH]c5ccc(F)cc5c4C4CCC(C(C)(C)C)CC4C3C2=O)cc1` (stereo unspecified), the GI50 is > 10 µM (inactive) in the test on A498; > 10 µM (inactive) in the test on MDA-N; > 10 µM (inactive) in the test with MDA-MB-435; > 10 µM (inactive) in the test with MDA-MB-231; 6.05 µM (inactive) in the test with OVCAR-4; 2.81 µM (inactive) with Hs-578T. Also, the GI50 in the test with HCC 2998 is > 10 µM (inactive); in the test with HCT-116, 4.14 µM (inactive); in the test on SR it was > 10 µM (inactive); with RXF 393, > 10 µM (inactive); with T47D, 9.25 µM (inactive); in the test on NCI-H522, 6.87 µM (inactive). In addition, the GI50 with MCF7 was > 10 µM (inactive); in the test on A549, 7.1 µM (inactive); in the test with DU-145, > 10 µM (inactive); with EKVX, > 10 µM (inactive); in the test on NCI-H460, 5.07 µM (inactive).
As for `COc1ccc(N[C@H](C[S+]([O-])c2ccc(C)cc2)C(F)(F)C(F)(F)F)cc1` (stereo partly specified), the GI50 in the test on A498 was > 100 µM (inactive); with MDA-N, > 100 µM (inactive); in the test with MDA-MB-435, > 100 µM (inactive); in the test on OVCAR-4 it was 95.7 µM (inactive); in the test with Hs-578T, 36.6 µM (inactive); in the test with LOX IMVI it was 91.4 µM (inactive). For the same compound, the GI50 was > 100 µM (inactive) in the test with HCC 2998; 52.4 µM (inactive) in the test on HCT-116; 4.21 µM (inactive) in the test on RXF 393; 14.1 µM (inactive) in the test on T47D; 71.4 µM (inactive) in the test on NCI-H522; > 100 µM (inactive) in the test with MCF7. Besides, the GI50 with A549 is 99.5 µM (inactive); with DU-145, > 100 µM (inactive); with EKVX, 65.2 µM (inactive); with NCI-H460 it was > 100 µM (inactive).
As to `COC(=O)NN1C(=O)C(=P(c2ccccc2)(c2ccccc2)c2ccccc2)C(C(=O)OC)=C1C`, the GI50 in the test with A498, in the test with LXFL 529, in the test with RXF 631, with LOX IMVI, with NCI-H522 and in the test with EKVX was > 100 µM (inactive) each time. For the same compound, the GI50 with NCI-H460 is > 100 µM (inactive).
With `O=C(/C=C1\Nc2ncccc2N=C1CC(=O)c1ccccc1)c1ccccc1`, the GI50 in the test with A498 was 7.35 µM (inactive); in the test with MDA-N it was 7.52 µM (inactive); in the test on MDA-MB-435, 5.93 µM (inactive); in the test with MDA-MB-231, 10.6 µM (inactive); in the test on OVCAR-4 it was 9.2 µM (inactive); with Hs-578T, 15.6 µM (inactive). The GI50 is 5.12 µM (inactive) in the test with LOX IMVI; 4.66 µM (inactive) with SR; 9.31 µM (inactive) in the test on T47D; 11 µM (inactive) in the test with NCI-H522; 3.61 µM (inactive) with MCF7; 6.05 µM (inactive) in the test with A549. In addition, the GI50 is 12.9 µM (inactive) in the test on DU-145 and 1.59 µM (inactive) with NCI-H460.

Source of the values: ChEMBL document CHEMBL1201862, “PubChem BioAssay data set” (2004).
